The values below are quoted from earlier work in patent US9604977B2, “Bicyclic thiophenylamide compounds” (Hoffmann-La Roche Inc., priority 2012, dated 2017).

Consider `CCc1c(-c2ccccc2)c(-c2ccccc2)nn1-c1ccccc1-c1cccc(OCC(=O)O)c1` [BMS309403], for which, in the data set on ob/ob mice (clamp study in ob/ob mice), the “glucose uptake in muscle and adipose” value is “increased glucose uptake in muscle and adipose”; the hepatic glucose production entry was “reduction of hepatic glucose production”. Also, in the data set on ob/ob mice (ob/ob mice), the “body weight and energy consumption” value was “no change in body weight and energy consumption”; the hepatic steatosis entry was “reduction in hepatic steatosis”. Also, the atherosclerotic plaques formation entry in the data set with ApoE KO mice is “decrease in atherosclerotic plaques formation”.
Regarding `Cc1noc(-c2c(NC(=O)C3=C(C(=O)O)CCCC3)sc3c2CCCC3)n1` [Compound 3], in the data set on mice under HF diet, the “insulin and glucose tolerance” value was “no improvement in insulin and glucose tolerance”; the “plasma triglyceride and free fatty acid” value was “reduction in plasma triglyceride and free fatty acid”.
